Test results taken from patent publication US7125847B1, “Mechanically activated channel blocker” (priority 2000, dated 2006).
Entries after “also recorded” stand apart in the source; their conditions may differ.

Key:
perfused rabbit hearts = test: Stretch-induced atrial fibrillation in perfused rabbit hearts
Text: To illustrate this embodiment, fibrillation was initiated in perfused rabbit hearts with a burst of high-frequency stimulation FIG. 10A. Stretching the atrium chamber increased the incidence and duration of fibrillation (FIG. 10A–C). At pressures above 12 cm H2O, the fibrillation became sustained and the probability of sustained fibrillation (for, longer than 60 s) approached unity. The probability of inducing fibrillation was increased by stimulating the heart with a short burst of high-frequency pacing before each measurement (arrow in FIG. 10b). Perfusion with 170 nM GsMtx-4 suppressed both the incidence (FIG. 10c) and duration (FIG. 10d) of fibrillation in all hearts (n=10).

[1] = system: swelling-activated currents in ventricular myocytes; test: Perforated patch whole-cell swelling-activated currents in ventricular myocytes from rabbits with aortic regurgitation-induced CHF; type: cell-based, rabbit; conditions: 0.4 μM
Protocol: Ventricular myocytes were freshly isolated from New Zealand white rabbits with aortic regurgitation induced congestive heart failure using a collagenase-pronase dispersion method (Clemo et al., 1997, supra). Cells were stored in a modified Kraft-Bruhe solution (KOH 132 mM, glutamic acid 120 mM, KCl 2.5 mM, KH2PO4 10 mM, MgSO4 1.8 mM, K2EGTA 0.5 mM, glucose 11 mM, taurine 10 mM, Hepes 10 mM, pH 7.2). Myocytes were used within 6 h of harvesting and only quiescent cells with no evidence of membrane blebbing were selected for study.
Swelling activated currents were measured in myocytes according to the method of Clemo & Baumgarten (1997). Briefly, electrodes were pulled from glass capillaries to give a final tip diameter of […] and a resistance of 0.5–1 MW when filled with the standard electrode filling solution (K aspartate 120 mM, KCl 10 mM, NaCl 10 mM, MgSO4 3 mM, Hepes 10 mM, pH 7.1). Whole cell currents were recorded using an Axoclamp 200A. Pulse and ramp protocols, voltage clamp data acquisition and off-line data analysis were controlled with software written in ASYST. Both step and ramp voltage clamp protocols were applied with a holding potential of −80 mV. Currents were digitized at 1 KHz and low-pass filtered at 200 Hz. Whole cell currents were recorded using the amphotericin perforated patch technique. Solution changes were performed by bath perfusion that was completed within 10 s. The standard bath solution contained (NaCl 65 mM, KCl 5 mM, CaSO4 2.5 mM, MgSO4 0.5 mM, glucose 10 mM and Hepes 10 mM pH 7.2, and 130 mM (IT) or 283 mM (1.5 T) mannitol to control the osmolarity. Isotonic osmolarity was taken as 296 mosm (IT) and 444 mosm for hypertonic solution (1.5 T).
The myocytes were exposed to 1.0 T and 1.5 T solution in the absence (1.0 TC, 1.5 TC) and presence (1.0 TTX, 1.5 TTX) of 0.4 μM GsMTx-4. […] However, whole cell current was unaffected by GsMTx-4 when swelling-activated currents were inactivated by 1.5 T hypertonic saline (FIG. 9Bd). […] The remaining inward current is largely. ICI,swell. […]

ventricular myocytes = test: Myocyte volume by video microscopy in CHF rabbit ventricular myocytes; type: cell-based; conditions: 0.4 μM
Protocol: Myocyte volume was determined by visualization with an inverted Nikon Diaphot microscope equipped with Hoffman modulation optics and a high resolution TV camera coupled to a video frame-grabber. Images were captured on-line each time a ramp or step voltage clamp protocol was performed using a program written in C and assembler and linked to ASYST voltage-clamp software. A combination of commercial (MOCHA; SPSS) and custom (ASYST) programs were used to determine cell width, length, and area of the image. GsMTx-4 produced a cell volume reduction that is ˜40% of that produced by 1.5 T […] saline.

## GCLEFWWKCNPNDDKCCRPKLKCSKLFKLCNFSFGK [GsMTx-4]
Perfused rabbit hearts; 170 nM perfusion
  duration of fibrillation: decreased the average time to spontaneous recovery from AF; also recorded: suppressed
Perfused rabbit hearts; 170 nM perfusion, n=10 hearts
  incidence of fibrillation: suppressed
Perfused rabbit hearts; 170 nM, n=10
  stretch-induced shortening of the refractory period: did not block
Perfused rabbit hearts; 170 nM, pressures below 17.5 cm H2O
  sustained fibrillation: completely inhibited
[1]; 1.0 T
  effect on inward ICir,swell: significant reduction
  effect on outward ICI,swell: no effect
[1]; 1.5 T hypertonic saline
  effect on whole cell current when swelling-activated currents inactivated: unaffected
Ventricular myocytes
  cell volume reduction relative to that produced by 1.5 T saline: ~40%
